Here are results for one compound from patent US20090074886A1, “GSK-3 INHIBITORS” (Novartis Vaccines and Diagnostics Inc., priority 2003, published 2009).

One assay relates to 3T3-L1 preadipocyes. Conditions: cited from earlier work.
Another assay deals with ST2 cells. The experiment in a line: Osteogenesis of multipotential ST2 cells, Alizarin Red-S staining for mineralization. Conditions: 3 μM on days 0 and 2 vs DMSO control; Alizarin Red-S stain on day 10; FIG. 1B. Type of assay: cell-based. The protocol:
FIG. 1B. Multipotential ST2 cells were induced to undergo osteogenesis as described (Hankenson and Bornstein 2002). On days 0 and 2, cells were treated with DMSO (control) or 3 μM CHIR99021 6-[(2-{[4-(2,4-dichlorophenyl)-5-(4-methylimidazol-2-yl)pyrimidin-2-yl]amino}ethyl)amino]pyridine-3-carbonitrile (Chiron Corporation, Emeryville, Calif.). On day 10, cells were stained with Alizarin Red-S for mineralization.

For the compound `Cc1c[nH]c(-c2cnc(NCCNc3ccc(C#N)cn3)nc2-c2ccc(Cl)cc2Cl)n1` [CHIR99021, 6-[(2-{[4-(2,4-dichlorophenyl)-5-(4-methylimidazol-2-yl)pyrimidin-2-yl]amino}ethyl)amino]pyridine-3-carbonitrile], the “Wnt signaling in vitro” value with 3T3-L1 preadipocyes was “mimic Wnt signaling”. In addition, in the assay on 3T3-L1 preadipocyes (in vitro), the adipocyte conversion entry is on record as “blocking adipocyte conversion”. Besides, the “osteoblastogenesis and mineralization of bipotential ST2 cells” value with ST2 cells was “increases osteoblastogenesis and mineralization”.
